#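 Five concentrations, 48 hours, 96-well plates. GI50 marks 50% less growth. At the TGI there is no net growth.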
# Assays:
# Test in all cases: DTP human tumour cell line panel, 48 h
# [1] = system: SN12C renal
# [2] = system: SK-MEL-28 melanoma
# [3] = system: MALME-3M melanoma
# [4] = system: ACHN renal
# [5] = system: NCI-H226 lung
# [6] = system: SNB-75 CNS
# [7] = system: COLO 205 colon
# [8] = system: NCI-H23 lung
# [9] = system: DU-145 prostate
# [10] = system: 786-0 renal
# [11] = system: MOLT-4 leukemia
# [12] = system: HL-60(TB) leukemia
# [13] = system: CCRF-CEM leukemia
# [14] = system: LOX IMVI melanoma
# [15] = system: SNB-19 CNS
# [16] = system: T-47D breast
# [17] = system: EKVX NSCLC
# [18] = system: A498 renal
# [19] = system: HOP-92 NSCLC
# [20] = system: SK-MEL-5 melanoma
# [21] = system: MDA-MB-435
# [22] = system: NCI-H460 lung
# [23] = system: SF-295 CNS
# [24] = system: OVCAR-4 ovarian
# [25] = system: UACC-257 melanoma
# [26] = system: HS 578T breast
# [27] = system: SR leukemia
# [28] = system: HCC-2998 colon
# [29] = system: RPMI-8226 leukemia
# [30] = system: SF-539 CNS
# [31] = system: NCI/ADR-RES ovarian
# [32] = system: UO-31 renal
# [33] = system: HOP-62 NSCLC
# [34] = system: OVCAR-8 ovarian
# [35] = system: SF-268 CNS
# [36] = system: KM12 colon
# [37] = system: UACC-62 melanoma
# [38] = system: U251 CNS
# [39] = system: IGROV1 ovarian
# [40] = system: OVCAR-5 ovarian
# [41] = system: HT29 colon
# [42] = system: HCT-15 colon
# [43] = system: M14 melanoma
# [44] = system: TK-10 renal
# [45] = system: RXF 393 renal
# [46] = system: MCF7 breast
# [47] = system: SW-620 colon
# [48] = system: HCT-116 colon
# [49] = system: SK-OV-3 ovarian
# [50] = system: A549 NSCLC
# [51] = system: MDA-MB-231 breast
# [52] = system: SK-MEL-2 melanoma
# [53] = system: PC-3 prostate
# [54] = system: BT-549 breast
# [55] = system: OVCAR-3 ovarian
# [56] = system: NCI-H522 lung
# [57] = system: K-562 leukemia
# [58] = system: CAKI-1 renal
smiles,measurement,setting,value
c1ccc(CN2CCC(Nc3ccccc3)(c3nnnn3Cc3ccccc3)CC2)cc1,TGI,[1],> 100 µM
same,TGI,[2],36.5 µM
same,TGI,[3],34.9 µM
same,TGI,[4],> 100 µM
same,TGI,[5],> 100 µM
same,TGI,[6],92.6 µM
same,TGI,[7],28.9 µM
same,TGI,[8],> 100 µM
same,TGI,[9],> 100 µM
same,TGI,[10],60.6 µM
same,TGI,[11],> 100 µM
same,TGI,[12],25.9 µM
same,TGI,[13],88.3 µM
same,TGI,[14],43.5 µM
same,TGI,[15],> 100 µM
same,TGI,[16],72.4 µM
same,TGI,[17],> 100 µM
same,TGI,[18],63.8 µM
same,TGI,[19],34.5 µM
same,TGI,[20],25.6 µM
same,TGI,[21],> 100 µM
same,TGI,[22],53.9 µM
same,TGI,[23],44.8 µM
same,TGI,[24],> 100 µM
same,TGI,[25],34.5 µM
same,TGI,[26],> 100 µM
same,TGI,[27],93.2 µM
same,TGI,[28],10.5 µM
same,TGI,[29],> 100 µM
same,TGI,[30],41.5 µM
same,TGI,[31],> 100 µM
same,TGI,[32],26.6 µM
same,TGI,[33],> 100 µM
same,TGI,[34],> 100 µM
same,TGI,[35],> 100 µM
same,TGI,[36],33.3 µM
same,TGI,[37],> 100 µM
same,TGI,[38],> 100 µM
same,TGI,[39],> 100 µM
same,TGI,[40],76.1 µM
same,TGI,[41],24.2 µM
same,TGI,[42],97.9 µM
same,TGI,[43],38.5 µM
same,TGI,[44],> 100 µM
same,TGI,[45],73.8 µM
same,TGI,[46],88.2 µM
same,TGI,[47],60.6 µM
same,TGI,[48],53.4 µM
same,TGI,[49],> 100 µM
same,TGI,[50],> 100 µM
same,TGI,[51],88.9 µM
CSCCCNC(=O)c1ccc2c(c1)/C(=C/c1[nH]c(C)cc1C)C(=O)N2,GI50,[1],0.571 µM
same,TGI,[1],> 100 µM
same,GI50,[2],1.65 µM
same,TGI,[2],> 100 µM
same,GI50,[52],0.356 µM
same,TGI,[52],4.42 µM
same,GI50,[3],0.597 µM
same,TGI,[3],> 100 µM
same,GI50,[4],0.299 µM
same,TGI,[4],> 100 µM
same,GI50,[5],2.24 µM
same,TGI,[5],> 100 µM
same,GI50,[7],0.943 µM
same,TGI,[7],> 100 µM
same,GI50,[8],1.59 µM
same,TGI,[8],> 100 µM
same,GI50,[9],0.7 µM
same,TGI,[9],> 100 µM
same,GI50,[10],1.93 µM
same,TGI,[10],> 100 µM
same,GI50,[11],1.7 µM
same,TGI,[11],> 100 µM
same,GI50,[12],2.54 µM
same,TGI,[12],> 100 µM
same,GI50,[13],4.36 µM
same,TGI,[13],> 100 µM
same,GI50,[14],1.02 µM
same,TGI,[14],> 100 µM
same,GI50,[15],25.6 µM
same,TGI,[15],> 100 µM
same,GI50,[16],0.465 µM
same,TGI,[16],> 100 µM
same,GI50,[18],0.47 µM
same,TGI,[18],2.7 µM
same,GI50,[19],1.03 µM
same,TGI,[19],> 100 µM
same,GI50,[20],1.57 µM
same,TGI,[20],> 100 µM
same,GI50,[21],0.856 µM
same,TGI,[21],> 100 µM
same,GI50,[22],0.872 µM
same,TGI,[22],> 100 µM
same,GI50,[23],2.15 µM
same,TGI,[23],> 100 µM
same,GI50,[25],4.67 µM
same,TGI,[25],> 100 µM
same,GI50,[26],0.853 µM
same,TGI,[26],> 100 µM
same,GI50,[27],0.476 µM
same,TGI,[27],61.4 µM
same,GI50,[28],4.95 µM
same,TGI,[28],> 100 µM
same,GI50,[53],0.647 µM
same,TGI,[53],> 100 µM
same,GI50,[29],1.68 µM
same,TGI,[29],> 100 µM
same,GI50,[30],0.734 µM
same,TGI,[30],> 100 µM
same,GI50,[32],0.347 µM
same,TGI,[32],> 100 µM
same,GI50,[33],0.286 µM
same,TGI,[33],> 100 µM
same,GI50,[54],2.7 µM
same,TGI,[54],> 100 µM
same,GI50,[34],1.95 µM
same,TGI,[34],> 100 µM
same,GI50,[35],1.98 µM
same,TGI,[35],> 100 µM
same,GI50,[36],0.43 µM
same,TGI,[36],> 100 µM
same,GI50,[37],0.687 µM
same,TGI,[37],> 100 µM
same,GI50,[38],0.675 µM
same,TGI,[38],> 100 µM
same,GI50,[39],0.421 µM
same,TGI,[39],> 100 µM
same,GI50,[40],3.85 µM
same,TGI,[40],> 100 µM
same,GI50,[41],4.95 µM
same,TGI,[41],> 100 µM
same,GI50,[42],0.44 µM
same,TGI,[42],> 100 µM
same,GI50,[43],0.284 µM
same,TGI,[43],> 100 µM
same,GI50,[44],6.44 µM
same,TGI,[44],> 100 µM
same,GI50,[55],1.98 µM
same,TGI,[55],> 100 µM
same,GI50,[45],0.977 µM
same,TGI,[45],37.1 µM
same,GI50,[46],4.05 µM
same,TGI,[46],> 100 µM
same,GI50,[47],0.846 µM
same,TGI,[47],> 100 µM
same,GI50,[56],0.843 µM
same,TGI,[56],> 100 µM
same,GI50,[48],0.548 µM
same,TGI,[48],> 100 µM
same,GI50,[49],0.366 µM
same,TGI,[49],62.8 µM
same,GI50,[50],2.75 µM
same,TGI,[50],> 100 µM
same,GI50,[57],2.01 µM
same,TGI,[57],> 100 µM
same,GI50,[51],2.87 µM
same,TGI,[51],> 100 µM
COc1cc(C2C3=C(COC3=O)Oc3cc4c(cc32)OCO4)cc(OC)c1O (stereo not given),TGI,[1],23.2 µM
same,TGI,[2],89.8 µM
same,TGI,[52],2.51 µM
same,TGI,[3],39.5 µM
same,TGI,[4],22.9 µM
same,TGI,[5],0.215 µM
same,TGI,[7],0.0776 µM
same,TGI,[8],1.81 µM
same,TGI,[9],0.391 µM
same,TGI,[10],15.5 µM
same,TGI,[11],26 µM
same,TGI,[12],0.294 µM
same,TGI,[13],> 66.9 µM
same,TGI,[14],19 µM
same,TGI,[15],27.6 µM
same,TGI,[16],60.3 µM
same,TGI,[17],94.1 µM
same,TGI,[18],6.75 µM
same,TGI,[19],5.55 µM
same,TGI,[20],< 0.0187 µM
same,TGI,[22],4.05 µM
same,TGI,[23],15.4 µM
same,TGI,[24],47.8 µM
same,TGI,[25],> 61.7 µM
same,TGI,[27],> 100 µM
same,TGI,[28],0.121 µM
same,TGI,[53],4.67 µM
same,TGI,[29],> 41.9 µM
same,TGI,[30],< 0.0148 µM
same,TGI,[32],49.6 µM
same,TGI,[33],15.2 µM
same,TGI,[54],> 100 µM
same,TGI,[34],1.05 µM
same,TGI,[35],26.8 µM
same,TGI,[36],> 100 µM
same,TGI,[37],2.69 µM
same,TGI,[38],14 µM
same,TGI,[39],21.9 µM
same,TGI,[40],39.4 µM
same,TGI,[41],0.984 µM
same,TGI,[42],> 100 µM
same,TGI,[43],> 100 µM
same,TGI,[44],63.8 µM
same,TGI,[55],19.8 µM
same,TGI,[46],> 48.2 µM
same,TGI,[47],> 100 µM
same,TGI,[56],< 0.088 µM
same,TGI,[48],0.208 µM
same,TGI,[49],1.48 µM
same,TGI,[58],21.6 µM
same,TGI,[50],> 60.6 µM
same,TGI,[57],0.402 µM
same,TGI,[51],> 24.9 µM

# Source: PubChem BioAssay (NCI)
